Data reported in patent US20080227643A1, “Use of adjuvants to improve abscisic acid analog and abscisic acid derivative performance” (priority 2007, published 2008).
“And” between values parts separate entries of the source, which are not always exact repeats. Equal values may be shown once.

Tested on: tomato leaf transpiration
Assay: tomato leaf transpiration inhibition bioassay (foliar application, porometer)
Type: in vivo, Tomato (variety: Rutgers)
Conditions: 25 ppm ABA analog foliar applied; for Transpiration rate (% of control): 20 mL/6 plants
Protocol: ABA analog effectiveness may be measured experimentally by quantifying the inhibition of transpiration in tomato leaves; this is a reliable laboratory bioassay of the level of ABA activity.
All the research studies were conducted in the greenhouse at the research farm of Valent BioSciences Corporation (Long Grove, Ill.). Tomato (variety: Rutgers) seeds were sown in 18-cell flats filled with Promix PGX (available from Premier Horticulture Inc. Quakertown, Pa.) three weeks for germination and initial growth. Plants were then transplanted into pots (18 cm in diameter and 18 cm in height) filled with Promix BX (available from Premier Horticulture Inc. Quakertown, Pa.) and grown for one or two more weeks before treatment, depending on greenhouse temperature. During growing periods, plants received daily irrigation and weekly fertilizer (1 g/L all purpose fertilizer 20-20-20, The Scotts Company, Marysville, Ohio).
Chemical solutions were prepared with distilled water. ABA analogs, 8′ acetylene-ABA, acid (PBI-524) and 8′ acetylene-ABA methyl ester (PBI-429) were available from Plant Biotechnology Institute, National Research Council of Canada (Saskatoon, Saskatchewan, Canada). 25 ppm PBI-429 or 25 ppm PBI-524 was prepared by dissolving 25 mg chemical in 1 L distilled water.
Tween 20 and Brij 98 were available from Uniqema (New Castle, Del.). Silwet L-77 was available from GE Silicones (Wilton, Conn.). Agral 90 was available from Norac Concept. Inc. (Orleans, Ontario, Canada). Kinetic was available from Setre Chemical Company (Memphis, Tenn.). Capsil was available from Aquatrols (Paulsboro, N.J.). Urea and ammonium nitrate (NH4NO3) were available from Sigma-Aldrich (St. Louis, Mo.). Ethyl lactate was available from Fluka Chemie (GmbH, Buchs, Germany). Surfactant was added to 250-ppm ABA or 25-ppm ABA analogs at the concentration of 0.05% or 0.5% (v/v). Since Brij 98 was a waxy substance and difficult to dissolve in water, a stock solution of 25% Brij 98 was prepared by dissolving 25 g Brij 98 in 75 g ethyl lactate and this solution was easily dissolve in water.
Chemical solutions were foliar applied to tomato plant leaves at the rate of 20 mL/6 plants. Plants were then placed in a transparent chamber with humidity controlled at relative humidity 40 to 60%. […] The transpiration rate of each treatment was calculated as the percentage of that of control at each day to reduce day-to-day variation caused by changes of environmental condition such as light intensity and temperature.
All experiments were randomized complete block experimental design. Data were analyzed by analysis of variance. Duncan's new multiple range tests at α=0.05 were used for mean separations.

[1] = average over 7 days (days 1, 2, 3, 4, 7)

SMILES | Transpiration rate (% of control) (1 day after treatment) | Transpiration rate (% of control) (2 days after treatment) | Transpiration rate (% of control) (3 days after treatment) | Transpiration rate (% of control) (4 days after treatment) | Transpiration rate (% of control) (7 days after treatment) | Transpiration rate (% of control), Average (average of days 1, 2, 3 (Table 11)) | Transpiration rate (% of control), Average [1]
C#CC1(C)CC(=O)C=C(C)C1(O)/C=C/C(C)=C\C(=O)OC (stereo not shown) [PBI-429, 8′ acetylene-ABA methyl ester] | 102 % of control and 81 % of control and 77 % of control | 87 % of control and 64 % of control and 60 % of control | 86 % of control and 69 % of control and 71 % of control | 77.52 % of control and 78 % of control and 81 % of control and 77 % of control | 95 % of control and 73 % of control | 70 % of control | 74 % of control
C#CC1(C)CC(=O)C=C(C)C1(O)C=CC(C)=CC(=O)O (stereo not shown) [PBI-524, 8′ acetylene-ABA, acid] | 95 % of control and 81 % of control | 87 % of control and 63 % of control | 93 % of control and 69 % of control | 92 % of control and 79 % of control | 101 % of control and 91 % of control | – | 77 % of control
